Assay results published in ChEMBL document CHEMBL3758118, “Effects of a novel carbocyclic analog of pyrrolo[2,3-d]pyrimidine nucleoside on pleiotropic induction of cell death in prostate cancer cells with different androgen responsiveness” (2016).
Active and inactive are the calls of the source. The rule behind the calls is not given here.

Columns and labels:
[1] = test system: LNCaP; assay: Induction of apoptosis in human LNCAP cells assessed as p21(Cip1) expression at 6 uM by western blotting analysis; type: functional, cell-based
[2] = test system: LNCaP; assay: Induction of apoptosis in human LNCAP cells assessed as caspase3 level at 6 uM by western blot analysis; type: functional, cell-based
[3] = test system: LNCaP; assay: Induction of apoptosis in human LNCAP cells assessed as cleaved PARP level at 6 uM by western blot analysis; type: functional, cell-based
[4] = Cell cycle distribution in human LNCaP C4-2 cells assessed as accumulation at sub-G1 phase at 9 uM for 48 hrs in presence of 100 uM AR inhibitor flutamide by propidium-iodide staining based flow cytometry; type: functional
[5] = Cell cycle distribution in human LNCaP C4-2 cells assessed as accumulation at sub-G1 phase at 9 uM after 48 hrs by propidium iodide staining based flow cytometry; type: functional
[6] = test system: LNCaP; assay: Induction of apoptosis in human LNCaP C4-2 cells assessed as increase p21(Cip1) mRNA level at 9 uM by semiquantitative RT-PCR technique relative to control; type: functional
[7] = test system: LNCaP; assay: Induction of apoptosis in human LNCaP C4-2 cells assessed as increase in cleaved PARP level at 9 uM after 48 hrs in presence of 100 uM AR inhibitor flutamide by western blot analysis; type: functional, cell-based
[8] = test system: LNCaP; assay: Induction of apoptosis in human LNCaP C4-2 cells assessed as increase in cleaved PARP level at 9 uM after 48 hrs by western blot analysis; type: functional, cell-based
[9] = test system: LNCaP; assay: Induction of apoptosis in human LNCaP C4-2 cells assessed as increase in caspase3 level at 9 uM after 48 hrs in presence of 100 uM AR inhibitor flutamide by western blot analysis; type: functional, cell-based
[10] = test system: LNCaP; assay: Induction of apoptosis in human LNCaP C4-2 cells assessed as increase in caspase3 level at 9 uM after 48 hrs by western blotting analysis; type: functional, cell-based
[11] = test system: LNCaP; assay: Induction of apoptosis in human LNCaP C4-2 cells assessed as increase in p21(Cip1) expression at 9 uM after 48 hrs in presence of 100 uM AR inhibitor flutamide by western blotting analysis; type: functional, cell-based
[12] = test system: LNCaP; assay: Induction of apoptosis in human LNCaP C4-2 cells assessed as increase in p21(Cip1) expression at 9 uM after 48 hrs by western blotting analysis; type: functional, cell-based
[13] = test system: LNCaP; assay: Antiproliferative activity against human LNCaP C4-2 cells assessed as cell viability at 9 uM after 48 hrs by MTT assay; type: functional, cell-based
[14] = test system: LNCaP; assay: Antiproliferative activity against human LNCaP C4-2 cells assessed as cell viability at 6 uM after 48 hrs by MTT assay; type: functional, cell-based
[15] = test system: LNCaP; assay: Antiproliferative activity against human LNCaP C4-2 cells assessed as cell viability at 6 uM after 24 hrs by MTT assay; type: functional, cell-based
[16] = test system: LNCaP; assay: Antiproliferative activity against human LNCAP cells assessed as cell viability at 6 uM after 24 hrs by MTT assay; type: functional, cell-based
[17] = test system: LNCaP; assay: Cell cycle distribution in human LNCAP cells assessed as accumulation at sub-G1 phase at 6 uM after 24 hrs in presence of 100 uM AR inhibitor flutamide by propidium-iodide staining based flow cytometry; type: functional
[18] = test system: LNCaP; assay: Induction of apoptosis in human LNCAP cells assessed as p21(Cip1) mRNA level at 6 uM in presence of 100 uM AR inhibitor flutamide by semiquantitative RT-PCR technique relative to control; type: functional
[19] = test system: LNCaP; assay: Induction of apoptosis in human LNCAP cells assessed as caspase-3 expression at 6 uM after 24 hrs cell pretreated with 100 uM AR inhibitor flutamide by western blot analysis; type: functional, cell-based
[20] = test system: LNCaP; assay: Induction of apoptosis in human LNCAP cells assessed as increase in p21(Cip1) mRNA level at 6 uM by semiquantitative RT-PCR technique relative to control; type: functional
[21] = test system: LNCaP; assay: Induction of apoptosis in human LNCAP cells assessed as cleaved PARP expression at 6 uM after 24 hrs cell pretreated with 100 uM AR inhibitor flutamide by western blot analysis; type: functional, cell-based
[22] = test system: LNCaP; assay: Induction of apoptosis in human LNCAP cells assessed as caspase-9 expression at 6 uM after 24 hrs cell pretreated with 100 uM AR inhibitor flutamide by western blot analysis; type: functional, cell-based
[23] = test system: LNCaP; assay: Induction of apoptosis in human LNCAP cells assessed as caspase-8 expression at 6 uM after 24 hrs cell pretreated with 100 uM AR inhibitor flutamide by western blot analysis; type: functional, cell-based
[24] = test system: LNCaP; assay: Induction of apoptosis in human LNCAP cells assessed as p21(Cip1) expression at 6 uM after 24 hrs cell pretreated with 100 uM AR inhibitor flutamide by western blot analysis; type: functional, cell-based
[25] = test system: DU-145; assay: Induction of apoptosis in human DU145 cells assessed as DNA fragmentation at 6 uM after 48 hrs in presence of 5 mM autophagy inhibitor 3-methyladenine by TUNEL assay; type: functional, cell-based
[26] = test system: DU-145; assay: Induction of apoptosis in human DU145 cells assessed as increase in cleaved PARP level at 6 uM after 48 hrs by western blotting analysis; type: functional, cell-based
[27] = test system: DU-145; assay: Induction of apoptosis in human DU145 cells assessed as increase in p21(Cip1) expression at 6 uM after 48 hrs by western blotting analysis; type: functional, cell-based
[28] = test system: DU-145; assay: Induction of apoptosis in human DU145 cells assessed as accumulation of autophagic vacuoles in cytoplasm at 6 uM after 24 hrs by fluorescence microscopic analysis; type: functional, cell-based
[29] = test system: LNCaP; assay: Induction of apoptosis in human LNCAP cells assessed as increase in cleaved PARP level at 6 uM after 24 hrs by western blotting analysis; type: functional, cell-based
[30] = test system: DU-145; assay: Induction of apoptosis in human DU145 cells assessed as cleaved PARP level at 6 uM after 24 hrs by western blotting analysis; type: functional, cell-based
[31] = test system: DU-145; assay: Induction of apoptosis in human DU145 cells assessed as active caspase-3 level at 6 um after 24 hrs by western blotting analysis; type: functional, cell-based
[32] = test system: LNCaP; assay: Induction of apoptosis in human LNCAP cells assessed as increase active caspase3 level at 6 uM after 24 hrs by western blotting analysis; type: functional, cell-based
[33] = test system: LNCaP; assay: Induction of apoptosis in human LNCAP cells assessed as increase in p21(Cip1) expression at 6 uM after 24 hrs by western blotting analysis; type: functional, cell-based
[34] = test system: DU-145; assay: Induction of apoptosis in human DU145 cell assessed as p21(Cip1) expression at 6 uM after 24 hrs by western blotting analysis; type: functional, cell-based
[35] = test system: DU-145; assay: Induction of apoptosis in human DU145 cells assessed as formation of crescent shaped apoptotic bodies at 6 uM after 24 hrs by transmission electron microscopic analysis; type: functional, cell-based
[36] = test system: LNCaP; assay: Induction of apoptosis in human LNCAP cells assessed as formation of crescent shaped apoptotic bodies at 6 uM after 24 hrs by transmission electron microscopic analysis; type: functional, cell-based
[37] = test system: DU-145; assay: Induction of apoptosis in human DU145 cells assessed as chromatin condensation at 6 uM after 24 hrs by transmission electron microscopic analysis; type: functional, cell-based
[38] = test system: LNCaP; assay: Induction of apoptosis in human LNCAP cells assessed as chromatin condensation at 6 uM after 24 hrs by transmission electron microscopic analysis; type: functional, cell-based

NC(=O)c1c(Br)n(C2CCCC2)c2ncnc(N)c12
Activity [1]: inactive
Activity [2]: inactive
Activity [3]: inactive

NC(=O)c1c(Br)nc2n(C3CCCC3)cnc(N)c1-2
Activity [4]: Active
Activity [5]: 30%
fold change (FC) [6]: 23
Activity [7]: Active
Activity [8]: Active
Activity [9]: Active
Activity [10]: Active
Activity [11]: Active
Activity [12]: Active
Activity [13]: Active
Activity [14]: Active
Activity [15]: inactive
Activity [16]: Active
Activity [17]: inactive
fold change (FC) [18]: 0.38
Activity [19]: inactive
fold change (FC) [20]: 56.98
Activity [21]: inactive
Activity [22]: inactive
Activity [23]: inactive
Activity [24]: inactive
Activity [25]: inactive
Activity [26]: Active
Activity [27]: Active
Activity [28]: Active
Activity [29]: Active
Activity [30]: inactive
Activity [31]: inactive
Activity [32]: Active
Activity [33]: Active
Activity [34]: inactive
Activity [35]: inactive
Activity [36]: Active
Activity [37]: inactive
Activity [38]: Active
